Source: patent US20230339952A1, “MACROCYCLIC HETEROCYCLES AND USES THEREOF” (Kumquat Biosciences Inc., priority 2022, published 2023)
Read-outs that look alike come from different tables or passages of the source.

Assays:
[1] = tested on: NCI-H1975 (ATCC CRL-5908) cell line comprising an EGFR T790M L858R double mutation; assay: EGFR-SOS cellular inhibition assay (CellTiter-Glo cell proliferation); format: cell-based; settings: Homo sapiens, 120 h; NCI-H1975 cell proliferation, approximately 5 days; read-out: H1975 IC50
Description: A CellTiter-Glo (CTG) luminescent based assay (Promega) is used to assess growth of the cells, as a measurement of the ability of the compounds herein to inhibit EGFR signaling in the cells. […] The day after plating, cells are treated with a dilution series (e.g., a 9 point 3-fold dilution series) of the compounds herein (e.g., approximately 125 μL final volume per well).

SOS1 = SOS1 (Homo sapiens (Human), UniProt Q07889); assay: Ras-SOS interaction assay (HTRF), K-Ras G13D utilized; format: binding; settings: K-Ras G13D
Chain of SOS1 (Q07889 564-1049): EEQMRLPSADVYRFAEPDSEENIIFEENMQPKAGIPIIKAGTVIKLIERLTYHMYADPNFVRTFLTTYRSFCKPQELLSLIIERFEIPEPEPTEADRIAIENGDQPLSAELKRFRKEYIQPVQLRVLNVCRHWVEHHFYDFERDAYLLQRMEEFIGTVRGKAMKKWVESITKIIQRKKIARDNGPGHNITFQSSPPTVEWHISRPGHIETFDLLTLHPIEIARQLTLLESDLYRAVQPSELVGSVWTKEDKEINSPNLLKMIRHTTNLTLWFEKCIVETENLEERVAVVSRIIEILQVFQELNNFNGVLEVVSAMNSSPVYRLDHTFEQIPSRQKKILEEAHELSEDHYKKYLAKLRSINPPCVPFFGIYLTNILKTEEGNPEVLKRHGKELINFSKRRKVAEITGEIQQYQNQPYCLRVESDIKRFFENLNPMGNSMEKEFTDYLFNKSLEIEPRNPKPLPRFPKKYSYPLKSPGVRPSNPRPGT

IC50 [1] | IC50 (SOS1; read-out: SOS1 IC50) | IC50 (SOS1; read-out: IC50 value against SOS1) | Compound
< 1 µM | < 0.1 µM |  | C[C@H]1Nc2ncnc3c2cc(C2CCS(=O)(=O)CC2)c(=O)n3CCCCn2cc(nn2)CN2CCC(CC2)C(F)(F)c2cccc1c2F [Compound 108, (6R,Z)-8^6-(1,1-dioxidotetrahydro-2H-thiopyran-4-yl)-5^2,4,4-trifluoro-6-methyl-8^7,8^8-dihydro-11H-7-aza-8(4,8)-pyrido[2,3-d]pyrimidina-3(1,4)-piperidina-1(4,1)-triazola-5(1,3)-benzenacyclododecaphan-8^7-one]
< 1 µM | 0.1 to 5 µM |  | C[C@H]1Nc2nnc(c3c2cc(C2CCS(=O)(=O)CC2)c(=O)n3C)OCCCCN2CCC(CC2)C(F)(F)c2cccc1c2F [Compound 87, (R)-6^3-(1,1-dioxidotetrahydro-2H-thiopyran-4-yl)-3^2,2,2-trifluoro-6^1,4-dimethyl-6^1,6^2-dihydro-7-oxa-5-aza-6(5,8)-pyrido[2,3-d]pyridazina-1(4,1)-piperidina-3(1,3)-benzenacycloundecaphan-6^2-one]
< 1 µM | < 0.1 µM |  | C[C@H]1Nc2ncnc3c2cc(N2CCS(=O)(=O)CC2)c(=O)n3CCCCCCCN2CCC(CC2)C(F)(F)c2cccc1c2F [Compound 38, (4R)-6^6-(1,1-dioxidothiomorpholino)-3^2,2,2-trifluoro-4-methyl-6^7,6^8-dihydro-5-aza-6(4,8)-pyrido[2,3-d]pyrimidina-1(4,1)-piperidina-3(1,3)-benzenacyclotridecaphan-6^7-one]
< 1 µM | < 0.1 µM |  | C[C@H]1Nc2ncnc3c2cc(C2(C#N)CC2)c(=O)n3CCCCCC/C=C/CN2CCC(CC2)C(F)(F)c2cccc1c2 [Compound 131, 1-((4R,E)-2,2-difluoro-4-methyl-6^7-oxo-6^7,6^8-dihydro-5-aza-6(4,8)-pyrido[2,3-d]pyrimidina-1(4,1)-piperidina-3(1,3)-benzenacyclopentadecaphan-13-en-6^6-yl)cyclopropane-1-carbonitrile]
< 1 µM | < 0.1 µM |  | C[C@H]1Nc2ncnc3c2cc(N2CCN(C)CC2)c(=O)n3CCCCCCCN2CCC(CC2)C(F)(F)c2cccc1c2F [Compound 57, (4R)-3^2,2,2-trifluoro-4-methyl-6^6-(4-methylpiperazin-1-yl)-6^7,6^8-dihydro-5-aza-6(4,8)-pyrido[2,3-d]pyrimidina-1(4,1)-piperidina-3(1,3)-benzenacyclotridecaphan-6^7-one]
< 1 µM | < 0.1 µM |  | C[C@H]1Nc2ncnc3c2cc(C2CCS(=O)(=O)CC2)c(=O)n3CCCCCC(C#N)CN2CCC(CC2)C(F)(F)c2cccc1c2 (stereo partly drawn) [Compound 114, (4R)-6^6-(1,1-dioxidotetrahydro-2H-thiopyran-4-yl)-2,2-difluoro-4-methyl-6^7-oxo-6^7,6^8-dihydro-5-aza-6(4,8)-pyrido[2,3-d]pyrimidina-1(4,1)-piperidina-3(1,3)-benzenacyclotridecaphane-12-carbonitrile]
< 1 µM | < 0.1 µM |  | C[C@H]1Nc2ncnc3c2cc(C2(C#N)CC2)c(=O)n3CCCCNC(=O)CN2CCC(CC2)C(F)(F)c2cccc1c2F [Compound 147, 1-((4R)-3^2,2,2-trifluoro-4-methyl-6^7,12-dioxo-6^7,6^8-dihydro-5,11-diaza-6(4,8)-pyrido[2,3-d]pyrimidina-1(4,1)-piperidina-3(1,3)-benzenacyclotridecaphane-6^6-yl)cyclopropane-1-carbonitrile]
< 1 µM | < 0.1 µM |  | CC(C)N1CCC(c2cc3c4ncnc3n(c2=O)CCCCCCCN2CCC(CC2)C(F)(F)c2cccc(c2)[C@@H](C)N4)CC1 [Compound 73, (4R)-2,2-difluoro-6^6-(1-isopropylpiperidin-4-yl)-4-methyl-6^7,6^8-dihydro-5-aza-6(4,8)-pyrido[2,3-d]pyrimidina-1(4,1)-piperidina-3(1,3)-benzenacyclotridecaphan-6^7-one]
< 1 µM | < 0.1 µM |  | C[C@H]1Nc2ncnc3c2cc(C2CCS(=O)(=O)CC2)c(=O)n3CCCCCCC(=O)N2CCC(CC2)C(F)(F)c2cccc1c2F [Compound 28, (4R)-6^6-(1,1-dioxidotetrahydro-2H-thiopyran-4-yl)-3^2,2,2-trifluoro-4-methyl-6^7,6^8-dihydro-5-aza-6(4,8)-pyrido[2,3-d]pyrimidina-1(4,1)-piperidina-3(1,3)-benzenacyclotridecaphane-6^7,13-dione]
< 1 µM | < 0.1 µM |  | C[C@H]1Nc2ncnc3c2cc(C2(C#N)CC2)c(=O)n3CCCCn2cc(nn2)CN2CCC(CC2)C(F)(F)c2cccc1c2 [Compound 94, 1-((6R,Z)-4,4-difluoro-6-methyl-8^7-oxo-8^7,8^8-dihydro-1^1H-7-aza-8(4,8)-pyrido[2,3-d]pyrimidina-3(1,4)-piperidina-1(4,1)-triazola-5(1,3)-benzenacyclododecaphane-8^6-yl)cyclopropane-1-carbonitrile]
< 1 µM | < 0.1 µM |  | C[C@H]1Nc2ncnc3c2cc(C2(C#N)CC2)c(=O)n3CCCCn2cc(nn2)CN2CCC(CC2)C(F)(F)c2cccc1c2F [Compound 126, 1-((6R,Z)-5^2,4,4-trifluoro-6-methyl-8^7-oxo-8^7,8^8-dihydro-1^1H-7-aza-8(4,8)-pyrido[2,3-d]pyrimidina-3(1,4)-piperidina-1(4,1)-triazola-5(1,3)-benzenacyclododecaphane-8^6-yl)cyclopropane-1-carbonitrile]
< 1 µM | < 0.1 µM |  | CC1CCCCCCn2c(=O)c(C3(C#N)CC3)cc3c(ncnc32)N[C@H](C)c2cccc(c2F)C(F)(F)C2CCN1CC2 (stereo partly drawn) [Compound 34, 1-((4R)-3^2,2,2-trifluoro-4,13-dimethyl-6^7-oxo-6^7,6^8-dihydro-5-aza-6(4,8)-pyrido[2,3-d]pyrimidina-1(4,1)-piperidina-3(1,3)-benzenacyclotridecaphane-6^6-yl)cyclopropane-1-carbonitrile]
< 1 µM | < 0.1 µM |  | Cc1nnc2c3cc(N4CCOCC4)nc(c13)OCCCCCCN1CCC(CC1)C(F)(F)c1cccc(c1)[C@@H](C)N2 [Compound 141, (R)-2,2-difluoro-6^4,4-dimethyl-6^7-morpholino-7-oxa-5-aza-6(1,5)-pyrido[3,4-d]pyridazina-1(4,1)-piperidina-3(1,3)-benzenacyclotridecaphane]
< 1 µM | < 0.1 µM |  | C[C@@H]1C(=O)NCCCCn2c(=O)c(C3(C#N)CC3)cc3c(ncnc32)N[C@H](C)c2cccc(c2)C(F)(F)C2CCN1CC2 [Compound 36, 1-((4R,13R)-2,2-difluoro-4,13-dimethyl-6^7,12-dioxo-6^7,6^8-dihydro-5,11-diaza-6(4,8)-pyrido[2,3-d]pyrimidina-1(4,1)-piperidina-3(1,3)-benzenacyclotridecaphane-6^6-yl)cyclopropane-1-carbonitrile]
< 1 µM | < 0.1 µM | < 0.05 µM | Cc1nc2c3cc(C4(C#N)CC4)c(=O)n(c3n1)CCC/C=C\CN1CCC(CC1)C(F)(F)c1cccc(c1)[C@@H](C)N2 [Compound 166, 1-((4R,Z)-2,2-difluoro-6^2,4-dimethyl-6^7-oxo-6^7,6^8-dihydro-5-aza-6(4,8)-pyrido[2,3-d]pyrimidina-1(4,1)-piperidina-3(1,3)-benzenacyclododecaphan-10-en-6^6-yl)cyclopropane-1-carbonitrile]
< 1 µM | < 0.1 µM |  | C[C@H]1Nc2ncnc3c2cc(C2(C#N)CCS(=O)(=O)CC2)c(=O)n3CCCCCN2CCC(CC2)CCC(F)(F)c2cccc1c2 [Compound 8, 4-((3R)-5,5-difluoro-3-methyl-1^7-oxo-1^7,1^8-dihydro-2-aza-1(4,8)-pyrido[2,3-d]pyrimidina-8(4,1)-piperidina-4(1,3)-benzenacyclotridecaphane-1^6-yl)tetrahydro-2H-thiopyran-4-carbonitrile 1,1-dioxide]
< 1 µM | < 0.1 µM |  | CC1CCCCCCn2c(=O)c(C3(C#N)CC3)cc3c(ncnc32)N[C@H](C)c2cccc(c2)C(F)(F)C2CCN1CC2 (stereo partly drawn) [Compound 63, 1-((4R)-2,2-difluoro-4,13-dimethyl-6^7-oxo-6^7,6^8-dihydro-5-aza-6(4,8)-pyrido[2,3-d]pyrimidina-1(4,1)-piperidina-3(1,3)-benzenacyclotridecaphane-6^6-yl)cyclopropane-1-carbonitrile]
< 1 µM | < 0.1 µM |  | C[C@H]1Nc2ncnc3c2cc(C2(C#N)CC2)c(=O)n3CCNC(=O)CCCN2CCC(CC2)C(F)(F)c2cccc1c2 [Compound 71, 1-((4R)-2,2-difluoro-4-methyl-6^7,10-dioxo-6^7,6^8-dihydro-5,9-diaza-6(4,8)-pyrido[2,3-d]pyrimidina-1(4,1)-piperidina-3(1,3)-benzenacyclotridecaphane-6^6-yl)cyclopropane-1-carbonitrile]
< 1 µM | < 0.1 µM |  | C[C@H]1Nc2ncnc3c2cc(C2CCS(=O)(=O)CC2)c(=O)n3CCCCNC(=O)[C@H](C)N2CCC(CC2)C(F)(F)c2cccc1c2 [Compound 85, (4R,13S)-6^6-(1,1-dioxidotetrahydro-2H-thiopyran-4-yl)-2,2-difluoro-4,13-dimethyl-6^7,6^8-dihydro-5,11-diaza-6(4,8)-pyrido[2,3-d]pyrimidina-1(4,1)-piperidina-3(1,3)-benzenacyclotridecaphane-6^7,12-dione]
< 1 µM | < 0.1 µM |  | C[C@H]1Nc2ncnc3nc(c(C4(C#N)CC4)cc23)OCCCCCCCN2CCC(CC2)C(F)(F)c2cccc1c2 [Compound 137, (R)-1-(2,2-difluoro-4-methyl-7-oxa-5-aza-6(4,7)-pyrido[2,3-d]pyrimidina-1(4,1)-piperidina-3(1,3)-benzenacyclotetradecaphane-6^6-yl)cyclopropane-1-carbonitrile]
< 1 µM | < 0.1 µM |  | C[C@H]1Nc2ncnc3c2cc(C2CCS(=O)(=O)CC2)c(=O)n3CCCCCN2CCC(CC2)CCC(F)(F)c2cccc1c2F [Compound 151, (3R)-1^6-(1,1-dioxidotetrahydro-2H-thiopyran-4-yl)-4^2,5,5-trifluoro-3-methyl-1^7,1^8-dihydro-2-aza-1(4,8)-pyrido[2,3-d]pyrimidina-8(4,1)-piperidina-4(1,3)-benzenacyclotridecaphan-1^7-one]
